Test systems include SF-268; HCC 2998; SNB-75; MOLT-4; SNB-19; OVCAR-3; CAKI-1; M14; K562; HCT-15; SF-295; TK-10; NCI-H522; RXF 393; IGROV-1; SK-MEL-2; OVCAR-8; UO-31; MCF7.
Common to all, as to experiment: inhibition of tumour cell growth, NCI panel, 48 h

Each structure is given as a SMILES string.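 96-well plates; 48 h exposure; 5 concentrations. Endpoints by linear interpolation between flanking doses. Not reached: highest tested concentration assigned. At the GI50, growth is halved.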 Activity calls are given as the source filed them. No stated cut-off is given here; in the data, active = GI50 up to about 1.1 µM and inactive = higher. Some results are limits rather than exact numbers.

As for `O=[N+]([O-])c1cccc(/C=N/C23CC4CC(CC(C4)C2)C3)c1`, the GI50 with SF-268 was > 100 µM (inactive); in the assay on HCC 2998 it was > 100 µM (inactive); in the assay on SNB-75, > 100 µM (inactive); in the assay with MOLT-4, 74.1 µM (inactive); with SNB-19, > 100 µM (inactive); with OVCAR-3, > 100 µM (inactive). Further, the GI50 is > 100 µM (inactive) in the assay on CAKI-1; > 100 µM (inactive) in the assay with M14; 29.7 µM (inactive) in the assay with K562; above 100 µM in the assay on HCT-15; > 100 µM (inactive) with SF-295; > 100 µM (inactive) in the assay with TK-10. The GI50 with NCI-H522, in the assay on RXF 393, in the assay on IGROV-1, with SK-MEL-2, in the assay on OVCAR-8 and in the assay on UO-31 was > 100 µM (inactive) each time.

Take `COC1=CCC2=C(CCN(C(=O)C3CC3)C2Cc2ccc(OC)c(O)c2)C1` (stereo not given): the GI50 with SF-268 is 51.1 µM (inactive); in the assay with HCC 2998 it was 35.1 µM (inactive); with SNB-75 it was 14.9 µM (inactive); in the assay on MOLT-4 it was 8.67 µM (inactive); in the assay with SNB-19, > 100 µM (inactive); in the assay on OVCAR-3, 45.4 µM (inactive). The GI50 in the assay with CAKI-1 is 83.4 µM (inactive); with M14, 45 µM (inactive); with K562 it was 25.8 µM (inactive); with HCT-15, 22.1 µM; in the assay on SF-295 it was 57.8 µM (inactive); with TK-10, 67.1 µM (inactive). Further, the GI50 with NCI-H522 was 28.8 µM (inactive); in the assay on RXF 393 it was 13.5 µM (inactive); with IGROV-1, 52 µM (inactive); in the assay on SK-MEL-2, 38.3 µM (inactive); with OVCAR-8, 34 µM (inactive); in the assay with MCF7 it was 33.2 µM (inactive). In addition, the GI50 with UO-31 was > 100 µM (inactive).

In the case of `N#Cc1ccccc1OCCOc1ccccc1C#N`, the GI50 in the assay with SF-268 was > 100 µM (inactive); with HCC 2998, > 100 µM (inactive); with SNB-75, 61.9 µM (inactive); in the assay with MOLT-4, > 100 µM (inactive); with SNB-19, > 100 µM (inactive); with OVCAR-3 it was > 100 µM (inactive). The GI50 was > 100 µM (inactive) with CAKI-1; > 100 µM (inactive) in the assay on M14; 20.3 µM (inactive) in the assay on K562; above 100 µM in the assay with HCT-15; > 100 µM (inactive) in the assay with SF-295; > 100 µM (inactive) in the assay with TK-10. Besides, the GI50 with NCI-H522, in the assay with RXF 393, in the assay on IGROV-1, with SK-MEL-2, in the assay on OVCAR-8 and in the assay with MCF7 was > 100 µM (inactive) throughout. In the assay with UO-31, the GI50 was > 100 µM (inactive).

Consider `N/N=C(\CCN1CCCC1)CC(c1ccccc1)c1c(O)c2ccccc2oc1=O` (stereo not given), for which the GI50 is > 100 µM (inactive) with SF-268; > 100 µM (inactive) with HCC 2998; 45.3 µM (inactive) in the assay with SNB-75; > 100 µM (inactive) in the assay on MOLT-4; > 100 µM (inactive) in the assay with SNB-19; > 100 µM (inactive) in the assay with OVCAR-3. Moreover, the GI50 is > 100 µM (inactive) with CAKI-1; > 100 µM (inactive) in the assay with M14; > 100 µM (inactive) in the assay on K562; above 100 µM with HCT-15; > 100 µM (inactive) in the assay with SF-295; > 100 µM (inactive) with TK-10. The GI50 with NCI-H522, in the assay with RXF 393, in the assay on IGROV-1, in the assay on SK-MEL-2 and with OVCAR-8 was > 100 µM (inactive) in each case.

In the case of `CCCNCCCCC(NC(C)=O)C(=O)NCc1ccccc1` (stereo not given), the GI50 in the assay with SF-268 is > 100 µM (inactive); with HCC 2998 it was > 100 µM (inactive); in the assay with SNB-75 it was 25.2 µM (inactive); in the assay with MOLT-4, > 100 µM (inactive); in the assay on SNB-19 it was > 100 µM (inactive); in the assay with OVCAR-3, > 100 µM (inactive). Further, the GI50 with CAKI-1 was > 100 µM (inactive); with M14, > 100 µM (inactive); with K562, > 100 µM (inactive); with HCT-15, above 100 µM; in the assay on SF-295, > 100 µM (inactive); with TK-10 it was > 100 µM (inactive). Moreover, the GI50 with NCI-H522, in the assay on RXF 393, with IGROV-1, with SK-MEL-2, in the assay with OVCAR-8 and in the assay with UO-31 was > 100 µM (inactive) throughout.

For the molecule `Cc1nc2ccccc2[s+]c1-c1cnc(NC#N)nc1C(=O)Nc1cccc(Cl)c1`, the GI50 in the assay on SF-268, with HCC 2998, in the assay on SNB-75, in the assay on MOLT-4, with SNB-19 and in the assay with OVCAR-3 was > 100 µM (inactive) in each case. Besides, the GI50 in the assay on CAKI-1 was > 100 µM (inactive); in the assay on M14 it was > 100 µM (inactive); in the assay with K562 it was > 100 µM (inactive); with HCT-15, above 100 µM; in the assay on SF-295 it was > 100 µM (inactive); with TK-10 it was > 100 µM (inactive). The GI50 in the assay on NCI-H522, in the assay with RXF 393, in the assay with IGROV-1, with SK-MEL-2, in the assay on OVCAR-8 and with UO-31 was > 100 µM (inactive) in each case.

Take `O=C(N/C(=C\c1ccc(/C=C(\NC(=O)c2ccccc2)c2nc3ccccc3[nH]2)cc1)c1nc2ccccc2[nH]1)c1ccccc1`: the GI50 in the assay on SF-268, in the assay with HCC 2998, in the assay with SNB-75, in the assay with MOLT-4, in the assay with SNB-19 and with OVCAR-3 was > 100 µM (inactive) in each case. Also, the GI50 with CAKI-1 is > 100 µM (inactive); in the assay with M14, 57.9 µM (inactive); with K562 it was > 100 µM (inactive); in the assay with HCT-15, above 100 µM; in the assay on SF-295, > 100 µM (inactive); with TK-10 it was > 100 µM (inactive). Further, the GI50 in the assay with NCI-H522, with RXF 393, with IGROV-1, in the assay with SK-MEL-2, with OVCAR-8 and with UO-31 was > 100 µM (inactive) throughout.

`COC1CC(n2cc(F)c(N)nc2=O)OC1CO` (stereo not given): the GI50 with SF-268 was > 100 µM (inactive); with HCC 2998, 9.77 µM (inactive); in the assay with SNB-75, > 100 µM (inactive); with MOLT-4, > 100 µM (inactive); with SNB-19, > 100 µM (inactive); in the assay with OVCAR-3, > 100 µM (inactive). For the same molecule, the GI50 was > 100 µM (inactive) with CAKI-1; > 100 µM (inactive) with M14; > 100 µM (inactive) in the assay on K562; above 100 µM in the assay on HCT-15; > 100 µM (inactive) in the assay on SF-295; > 100 µM (inactive) in the assay with TK-10. Also, the GI50 with NCI-H522, in the assay on RXF 393, in the assay with SK-MEL-2, in the assay with OVCAR-8 and in the assay on UO-31 was > 100 µM (inactive) in each case.

For the molecule `C=C(C(=C)P(=S)(C(C)C)C(C)C)P(=S)(C(C)C)C(C)C`, the GI50 in the assay on SF-268, in the assay on HCC 2998, in the assay with SNB-75, in the assay with MOLT-4, in the assay with SNB-19 and in the assay on OVCAR-3 was > 100 µM (inactive) each time. The GI50 is > 100 µM (inactive) with CAKI-1; > 100 µM (inactive) with M14; > 100 µM (inactive) in the assay on K562; above 100 µM with HCT-15; > 100 µM (inactive) in the assay with SF-295; > 100 µM (inactive) in the assay with TK-10. The GI50 in the assay on NCI-H522, in the assay with RXF 393, in the assay with IGROV-1, with OVCAR-8 and with UO-31 was > 100 µM (inactive) in each case.

Regarding `CN(C)c1ccc(/C=c2/c3ccccc3n3c2cc(NC(=O)NCCC[N+](C)(C)C)[n+]3C)cc1`, the GI50 is > 100 µM (inactive) in the assay with SF-268; > 100 µM (inactive) in the assay on MOLT-4; 64.1 µM (inactive) with SNB-19; 45.4 µM (inactive) in the assay with OVCAR-3; > 100 µM (inactive) with CAKI-1; 72.8 µM (inactive) in the assay on M14. In addition, the GI50 is 40.6 µM (inactive) in the assay with K562; above 100 µM with HCT-15; 53.7 µM (inactive) in the assay with SF-295; > 100 µM (inactive) with TK-10; 29.4 µM (inactive) in the assay on NCI-H522; > 100 µM (inactive) with RXF 393. Moreover, the GI50 was 16.4 µM (inactive) with IGROV-1; > 100 µM (inactive) in the assay with SK-MEL-2; 38.9 µM (inactive) in the assay with OVCAR-8; 46.6 µM (inactive) in the assay on MCF7; > 100 µM (inactive) in the assay with UO-31.

As to `Cc1ccc(S(=O)(=O)OC2CS[S+]([O-])CC2OS(=O)(=O)c2ccc(C)cc2)cc1` (stereo not given), the GI50 is 17 µM (inactive) in the assay on SF-268; 17.1 µM (inactive) with HCC 2998; 20.6 µM (inactive) in the assay with SNB-75; 2.23 µM (inactive) in the assay on MOLT-4; 17.6 µM (inactive) in the assay on SNB-19; 17.4 µM (inactive) in the assay on OVCAR-3. The GI50 was 12.9 µM (inactive) in the assay on CAKI-1; 14.3 µM (inactive) with M14; 4.02 µM (inactive) in the assay on K562; 19 µM in the assay with HCT-15; 15.7 µM (inactive) in the assay with SF-295; 15.1 µM (inactive) with TK-10. Moreover, the GI50 with NCI-H522 was 10.3 µM (inactive); with RXF 393, 8.22 µM (inactive); with IGROV-1 it was 18 µM (inactive); with OVCAR-8, 10.6 µM (inactive); in the assay with UO-31, 18.9 µM (inactive).
